In patent publication US20160122406A1, “ANALOGS OF PITUITARY ADENYLATE CYCLASE-ACTIVATING POLYPEPTIDE (PACAP) AND METHODS FOR THEIR USE” (THE ADMINISTRATORS OF THE TULANE EDUCATIONAL FUND, priority 2013, published 2016):
Entries after “also recorded” stand apart in the source; their conditions may differ. Read-outs that look alike come from different tables or passages of the source.

Tests used:
[1] = rat, in vivo, iv; cited from earlier work
[2] = system: Male C57BL/6 mice; assay: Cisplatin-induced nephrotoxicity in mice; type: in vivo
Procedure: (§1) Male C57BL/6 mice were given a single intraperitoneal injection of 20 mg/kg of cisplatin. Twenty micrograms of PACAP38 were given intraperitoneally 1 hour before the injection of cisplatin and additional doses were given at 24 and 48 hours after the initial dose. The control group of mice was injected intraperitoneally with the same volume of saline as for the injections of cisplatin and PACAP38 on the same schedule. The mice were euthanized 24 hours after the final injection of PACAP38. The serum creatinine levels were determined at sacrifice with isotope dilution liquid chromatography mass spectroscopy/mass spectroscopy. Each value represents the mean plus/minus the standard error of eight determinations. ** p<0.01 compared to the group treated only with cisplatin.
as §1, with “cystatin C” for “creatinine”, “commercial ELISA kits.” for “isotope dilution liquid chromatography mass spectroscopy/mass spectroscopy.”
as §1, with “body weights of the mice” for “serum creatinine levels”, “determined 1-2 hours before the first injection of PACAP38 and” for “determined”, “sacrifice.” for “sacrifice with isotope dilution liquid chromatography mass spectroscopy/mass spectroscopy.”, “p<0.01 and * p<0.05” for “p<0.01”
as §1, with “kidney” for “serum creatinine”, “levels of TNF-α” for “levels”, “commercial ELISA kits.” for “isotope dilution liquid chromatography mass spectroscopy/mass spectroscopy.”
as §1, with “kidney” for “serum creatinine”, “levels of IFN-γ” for “levels”, “commercial ELISA kits.” for “isotope dilution liquid chromatography mass spectroscopy/mass spectroscopy.”, “p<0.01 and * p<0.05” for “p<0.01”
Male C57BL/6 mice were given a single intraperitoneal injection of 20 mg/kg of cisplatin. Twenty micrograms of PACAP38 were given intraperitoneally 1 hour before the injection of cisplatin and additional doses were given at 24 and 48 hours after the initial dose. […]

[3] = system: rat; details: 48 hours after start, cited from earlier work
[4] = cisplatin 20 mg/kg i.p., 20 micrograms peptide i.p. 1 h before and 24 and 48 h after, ELISA at sacrifice

Row | Substance | half-life in the bloodstream [1] | cytoprotection against cisplatin-induced nephrotoxicity / kidney injury ([2]; PACAP38 compared with [Iac1]PACAP38) | cisplatin-induced increase in kidney levels of interferon γ (IFN-γ) [2, 4] | cisplatin-induced increase in kidney levels of monocyte chemotactic protein 1 (MCP-1, CCL2) [2, 4] | cisplatin-induced increase in kidney levels of tumor necrosis factor-α (TNF-α) [2, 4] | cisplatin-induced increase in serum cystatin C levels [2, 4] | cisplatin-induced body weight loss ([2]; cisplatin 20 mg/kg i.p., 20 micrograms peptide i.p. 1 h before and 24 and 48 h after, at sacrifice) | cisplatin-induced increase in serum creatinine levels ([2]; cisplatin 20 mg/kg i.p., 20 micrograms peptide i.p. 1 h before and 24 and 48 h after, at sacrifice 24 h after final injection) | kidney function of cisplatin-injected mice ([2]; summary of FIGS. 3 and 4) | inflammatory response in the kidney of cisplatin-injected mice ([2]; summary of FIGS. 6-8 (TNF-α, IFN-γ, MCP-1)) | reduction of the infarct volume ([3]; continuous i.v. infusion beginning 4 hours after start of 2-h MCAO) | reduction of the infarct volume ([3]; continuous i.v. infusion beginning 8 hours after start of 2-h MCAO) | reduction of the infarct volume ([3]; continuous i.v. infusion beginning 12 hours after start of 2-h MCAO)
1 | [^125I]-PACAP38: 125I-radiolabelled PACAP38 used for half-life in rats | 5 to 6 min | – | – | – | – | – | – | – | – | – | – | – | –
2 | PACAP38: native human pituitary adenylate cyclase-activating polypeptide, α-amidated peptide with 38 amino acids | – | approximately equipotent; also recorded: potent cytoprotectants | reduction | reduction | reduction | reduction | reduction; also recorded: significantly reversed the weight lost | reduction | significantly restored kidney function | significantly blunted the inflammatory response | approximately 51% | ~22% | ~12%
